{"source": "paper PMC4801743", "about": "(Journal of enzyme inhibition and medicinal chemistry, 2015)", "key": {"PHM [1]": {"target": "T1, PHM (Rattus norvegicus, UniProt P14925)", "T1 sequence (P14925 36-715 isoform P14925-2 limits assumed)": "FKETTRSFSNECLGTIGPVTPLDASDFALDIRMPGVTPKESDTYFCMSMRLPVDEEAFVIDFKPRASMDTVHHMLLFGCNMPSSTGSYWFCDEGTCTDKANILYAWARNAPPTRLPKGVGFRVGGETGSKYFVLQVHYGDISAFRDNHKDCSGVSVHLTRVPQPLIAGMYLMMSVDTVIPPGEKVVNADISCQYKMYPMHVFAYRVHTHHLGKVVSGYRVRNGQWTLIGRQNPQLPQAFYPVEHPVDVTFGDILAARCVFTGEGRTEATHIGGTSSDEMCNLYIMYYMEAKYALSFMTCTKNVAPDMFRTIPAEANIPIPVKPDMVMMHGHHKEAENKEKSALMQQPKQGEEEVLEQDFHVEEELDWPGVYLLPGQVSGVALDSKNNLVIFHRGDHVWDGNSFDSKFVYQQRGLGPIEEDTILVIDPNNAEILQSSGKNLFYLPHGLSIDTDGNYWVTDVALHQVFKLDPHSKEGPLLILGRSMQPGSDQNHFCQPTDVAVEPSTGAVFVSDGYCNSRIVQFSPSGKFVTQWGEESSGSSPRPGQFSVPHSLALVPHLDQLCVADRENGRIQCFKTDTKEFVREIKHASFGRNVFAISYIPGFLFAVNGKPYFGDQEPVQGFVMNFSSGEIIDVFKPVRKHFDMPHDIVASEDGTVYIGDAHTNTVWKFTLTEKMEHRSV", "experiment": "Inhibition of the PHM-dependent consumption of O2", "assay_type": "biochemical"}, "P450": {"tested_on": "P450", "conditions": "inactivation of P450; cited from earlier work"}, "PHM [2]": {"target": "T1, PHM", "experiment": "PHM inactivation by the dilution method", "assay_type": "biochemical", "conditions": "for Inactivation of PHM (qualitative): dilution method, in the presence of ascorbate and O2; for kinact/KI: pH 6, read-out: (kinact/KI)obs"}, "PHM [3]": {"target": "PHM", "conditions": "cited from earlier work; for Ki: PHM inactivator; for Km: PHM substrate"}, "PHM [4]": {"target": "T1, PHM", "experiment": "Tiopronin protection against the cinnamate-mediated inactivation of PHM", "assay_type": "biochemical", "conditions": "60 μM tiopronin, 7.5 mM cinnamate, 2 h"}, "[5]": {"tested_on": "dopamine β-monooxygenase (DβM)", "conditions": "inactivation of DβM; cited from earlier work"}}, "data": [{"compound": "O=C(O)C=Cc1ccccc1C(F)(F)F", "note": "[2-Trifluoromethylcinnamic acid]", "values": [{"measurement": "Ki", "setting": "PHM [1]", "result": "200 ± 20", "unit": "µM"}]}, {"compound": "C=CCC(C(N)=O)C(C)C", "note": "(centres unmarked) [2-isopropyl-4-pentenamide]", "values": [{"measurement": "partition ratio", "setting": "P450", "result": "200–300"}]}, {"compound": "O=C(O)C=Cc1ccc2c(c1)OCO2", "note": "[3,4-Methylenedioxycinnamic acid]", "values": [{"measurement": "Ki", "setting": "PHM [1]", "result": "300 ± 40", "unit": "µM"}]}, {"compound": "Nc1ccc(C=CC(=O)O)cc1", "note": "[4-Aminocinnamic acid]", "values": [{"measurement": "Ki", "setting": "PHM [1]", "result": "500 ± 60", "unit": "µM"}, {"measurement": "Inactivation of PHM (qualitative)", "setting": "PHM [2]", "result": "inactivate PHM"}, {"measurement": "kinact/KI", "setting": "PHM [2]", "result": 1, "unit": "M⁻¹ s⁻¹"}]}, {"compound": "CN(C)c1ccc(C=CC(=O)O)cc1", "note": "[N,N-Dimethyl-4-aminocinnamic acid]", "values": [{"measurement": "Inactivation of PHM (qualitative)", "setting": "PHM [2]", "result": "inactivate PHM"}, {"measurement": "kinact/KI", "setting": "PHM [2]", "result": 0.5, "unit": "M⁻¹ s⁻¹"}]}, {"compound": "CN(C)c1cccc2c(S(=O)(=O)Nc3ccc(C=CC(=O)O)cc3)cccc12", "note": "[N-Dansyl-4-aminocinnamic acid]", "values": [{"measurement": "Inactivation of PHM (qualitative)", "setting": "PHM [2]", "result": "inactivate PHM"}, {"measurement": "kinact/KI", "setting": "PHM [2]", "result": 333, "unit": "M⁻¹ s⁻¹"}, {"measurement": "(kinact/KI)obs relative to cinnamate", "setting": "PHM [2]; ratio to the (kinact/KI)obs value for cinnamate", "result": "~ 500 fold"}]}, {"compound": "O=C(O)C/C=C/c1ccccc1", "note": "[PBA, trans-4-phenyl-3-butenoate]", "values": [{"measurement": "Ki", "setting": "PHM [3]", "result": 50, "unit": "µM"}]}, {"compound": "O=C(O)/C=C/C(=O)c1ccccc1", "note": "[benzoylacrylate, trans-benzoylacrylate]", "values": [{"measurement": "Ki", "setting": "PHM [3]", "result": 200, "unit": "µM"}]}, {"compound": "O=C(O)CNC(=O)C=Cc1ccccc1", "note": "[cinnamoylglycine, N-cinnamoylglycine]", "values": [{"measurement": "Km", "setting": "PHM [3]", "result": 200, "unit": "µM"}]}, {"compound": "O=C(O)CNC(=O)CCc1ccccc1", "note": "[hydrocinnamoylglycine, N-hydrocinnamoylglycine]", "values": [{"measurement": "Km", "setting": "PHM [3]", "result": 900, "unit": "µM"}]}, {"compound": "CC(S)C(=O)NCC(=O)O", "note": "(centres unmarked) [tiopronin]", "values": [{"measurement": "Protection of PHM from cinnamate-mediated inactivation", "setting": "PHM [4]", "result": "did protect PHM from inactivation"}]}, {"compound": "phenyl(aminomethyl)ethane", "values": [{"measurement": "partition ratio, kcat/kinact", "setting": "[5]", "result": 900}]}]}
